Results published in US8227425B2, “Antiviral compounds” (Therapicon Srl, priority 2007, dated 2012).
Like-named read-outs stand apart in the source and are kept apart here.

Legend:
Experiment in all cases: microbe, parasite or virus in culture
[1] = system: B/Shandong/7/97; type: cell-based; settings: for IC50: Influenza B virus, 72 h, read-out: concentration of the compound necessary to reduce the plaques number to 50% against the control
[2] = system: A/NewCaledonia/20/99-H1N1; type: cell-based, influenza virus type A; settings: for IC50: Influenza A virus, H1N1, MDCK, 72 h, read-out: concentration of the compound necessary to reduce the plaques number to 50% against the control
[3] = system: A/Panama/2007/99-H3N2; type: cell-based, influenza virus type A; settings: for IC50: Influenza A virus, H3N2, MDCK, 72 h, read-out: concentration of the compound necessary to reduce the plaques number to 50% against the control
[4] = MDCK cells, about 50 PFU/ml, 3 days, tested 0.01-100 μM, duplicate

SMILES	IC50 ([1]; MDCK) [µM]	IC50 [2] [µM]	IC50 [3] [µM]	IC50 [1, 4] [µM]	antiviral activity relative to amantadine (fold less) [2] [fold]	antiviral activity against influenza virus type B in the tested concentration range ([1]; tested 0.01-100 μM, PRA)	antiviral activity relative to memantine (fold more) [2] [fold]	antiviral activity relative to memantine (fold more) [3] [fold]
NC12CC3CC(CC(C3)C1)C2 [Amantadine, amantadine, reference compound]	> 100	0.1	10					
CC(=O)NC1C(O)CC(O)(C(=O)O)OC1CNC12CC3CC(CC(C3)C1)C2 (stereo not shown) [Compound 1]		1	10	10	10			
CC(=O)NC1C(O)CC(O)(C(=O)O)OC1CNC12CC3CC(C)(CC(C)(C3)C1)C2 (stereo not shown) [Compound 8]		10	10	> 100		Any antiviral activity of Compound 8 has been evidenced	~10	~10
CC12CC3CC(C)(C1)CC(N)(C3)C2 [Memantine, memantine, reference compound]		100	100	100				
